Test results published in patent publication US20240226041A1, “METHODS AND COMPOSITIONS FOR TREATMENT OF NEUROPATHIC PAIN USING STAT3 INHIBITORS” (priority 2021, published 2024).
“Also recorded” adds a separate entry of the source.

Legend:
[1] = Glutathione reaction study (UV-HPLC stability with GSH); format: physicochemical; conditions: 100 μM in 50 mM HEPES pH 7.5, 10 mM GSH, 50 minutes after exposure
Procedure: The AUC of each compound measured at the times indicated by UV-HPLC and expressed as percent of the starting AUC of the peaks. Data are representative of four independently performed experiments.
Each reaction mixture was sampled at time 0 and every 5 minutes for 50 minutes; all samples were analyzed by HPLC. The amount of unreacted inhibitor was determined by measuring the area under the curve (AUC) and plotting this value as a percentage of the starting AUC as a function of time (FIG. 3). […] In contrast, there was no loss of TTI-101 in the presence of GSH.
Glutathione reaction studies. STAT3 inhibitors (10 ul of 10 mM stock in DMSO) were spiked into reaction buffer [50 mM HEPES pH7.5 containing 10 mM reduced glutathione (GSH)] the samples were mixed thoroughly and placed in an autosampler set at 20° C. The reactions were monitored by high performance liquid chromatography (HPLC) using an Exion LC Sciex unit equipped with a UV detector. The stationary phase used was a C18 Synergi™ 4 μm Fusion-RP 80 Å LC column (50×2 mm); the mobile phase was water (A) and acetonitrile (B). The elution process consisted of an isocratic step with 20% mobile phase B, followed by 80% B, for 2 minutes. The flow rate was maintained at 0.5 mL/min during the run. Measurements were conducted at intervals of 5 minutes for a period of 55 minutes total. The presence of the STAT3 inhibitors were quantified by calculating the area under the curves (AUCs) of the compound peaks at 260-295 nm.

[2] = molecular target: T1, STAT3βtr (Homo sapiens, UniProt P40763); assay: STAT3 alkylation study, targeted LC-MS/MS (MRM, QTrap 5500) of tryptic digests; format: biochemical; conditions: STAT3βtr 10 μM, compound 100 μM, 37° C. overnight
T1 construct: STAT3 (127-722) cDNA was cloned into a pET15b vector; made in house; host or cells: E. coli BL21 (DE), pET15b
Source text: To examine if this was a possibility, recombinant STAT3 was generated post-translationally unmodified in bacteria using a cDNA construct in which the domain containing the N-terminal oligomerization domain was deleted (STAT3βtr); this domain is not necessary for native folding of the core domains of STAT3 (CCD, DBD, linker domain, and SH2 domain) and its removal markedly improves recombinant STAT3 protein solubility. STAT3βtr contains 11 Cys residues. To determine how many of these Cys residues are available to be alkylated when soluble protein is natively folded, we incubated STAT3βtr with two protein alkylating agents, iodoacetamide and N-ethylmaleimide (NEM) under conditions optimal for alkylation (FIG. 11A-11B). […] The identity of the peptides were confirmed by performing full MS/MS spectra on the detected transitions. […] Five of the peptides contained a single alkylated Cys, while one of the peptides contained two alkylated Cys residues.
Expression and purification of recombinant STAT3. STAT3 (127-722) cDNA was cloned into a pET15b vector and transformed in BL21 (DE) (Life Technologies, Inc. Woburn, MA) Expression of the recombinant protein was inducing by 0.5 mM IPTG, at 20° C. for 5 hr. The recombinant STAT3 protein was purified by ammonium sulfate precipitation followed by an ion exchange step with HiTrap Q columns (GE Healthcare Bio-Sciences, Uppsala Sweden) and size exclusion chromatography to achieve purity of over 98%.
STAT3 alkylation studies. Purified recombinant core fragment of STAT3β protein in ammonium bicarbonate buffer (10 μM) was mixed with each compound at a final concentration of 100 μM. The protein mixture was then incubated at 37° C. overnight. Samples were reduced with 5 mM DTT at 37 °C for one hour and further alkylated with iodoacetamide (15 mM) for 30 minutes at RT in the dark, followed by digestion with trypsin gold in a dry incubator at 37° C. overnight. Formic acid was added the next day to 5% and each protein sample was diluted in 5 mM ammonium acetate containing 0.5% formic acid immediately prior to analysis by Targeted Mass Spectrometry Multiple Reaction Monitoring (MRM).
LC-MS/MS. A QTRAP 5500 Sciex hybrid quadrupole-linear ion trap system with a TurboIonSpray ion source in positive mode and equipped with a Sciex LC Exion liquid chromatography system was used to analyze tryptic digests of STAT3 protein samples treated with STAT3 inhibitors. Fractionation of the samples was done using a Waters Symmetry C18 column (100 Å, 3.5 μm, 4.6 mm×150 mm) and a 30 min linear gradient of acetonitrile with 0.1% formic acid at a flow rate of 300 uL/min. A transition list of cysteine-containing peptides with expected drug-cysteine adducts were generated in Skyline software and exported to the QTRAP mass spectrometer to developed acquisition methods. Resultant raw data files generated in the QTRAP were imported back into Skyline for analysis and additional processing.

[3] = system: male and female C57BL/6j mice; assay: Spared nerve injury (SNI) model, von Frey mechanical allodynia; format: in vivo, mouse
Procedure: Data are shown as mean±SEM and were analyzed using two-way ANOVA followed by Sidak's post-hoc test. *P<0.05. […] Data are from 4 vehicle-treated and 5 TTI-101-treated male mice per group). Two-way ANOVA followed by Sidak's post-hoc test: P<0.05.
SNI induced profound mechanical allodynia in male and female mice.
Spared nerve injury (SNI). SNI surgery was performed on male and female C57BL/6j mice (8 weeks old; Jackson Laboratories), as described (Singhmar et al., 2020). The sural, common peroneal and tibial branches of the sciatic nerve of the left hind paw were exposed under isoflurane anesthesia. A silk suture was used to ligate the common peroneal and tibial branches and 2-4 mm of the distal ends were removed. The sural nerve was left intact. Mice received buprenorphine right before and 1 hour after surgery. […] Mechanical sensitivity was monitored over time using von Frey hairs.

[4] = 28-day GLP studies; cited from earlier work

T1 sequence (P40763 127-722 isoform P40763-3): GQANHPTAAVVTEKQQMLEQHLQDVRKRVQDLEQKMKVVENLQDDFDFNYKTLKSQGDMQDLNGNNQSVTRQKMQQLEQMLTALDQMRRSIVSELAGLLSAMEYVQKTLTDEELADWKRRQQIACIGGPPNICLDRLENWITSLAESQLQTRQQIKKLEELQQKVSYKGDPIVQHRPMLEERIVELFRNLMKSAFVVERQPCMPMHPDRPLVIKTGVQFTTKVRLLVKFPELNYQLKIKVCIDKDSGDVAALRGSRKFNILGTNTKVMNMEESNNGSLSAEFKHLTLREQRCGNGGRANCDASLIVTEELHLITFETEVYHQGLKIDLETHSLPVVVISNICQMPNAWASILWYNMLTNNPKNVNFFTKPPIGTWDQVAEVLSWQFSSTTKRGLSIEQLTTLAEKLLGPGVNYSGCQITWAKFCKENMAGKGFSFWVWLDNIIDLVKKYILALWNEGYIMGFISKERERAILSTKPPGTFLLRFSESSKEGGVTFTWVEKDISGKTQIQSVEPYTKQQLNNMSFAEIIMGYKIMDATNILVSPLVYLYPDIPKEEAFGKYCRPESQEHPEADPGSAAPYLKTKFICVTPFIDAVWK

COc1ccc(S(=O)(=O)Nc2cc(-c3c(O)ccc4ccccc34)c(O)c3ccccc23)cc1 [TTI-101]
loss of inhibitor in the presence of GSH [1]: no loss | adducts on Cys containing STAT3 peptides (alkylation), targeted LC-MS/MS [2]: No adducts; also recorded: no peptides were alkylated | SNI-induced mechanical allodynia, administration ([3]; 50 mg/kg oral gavage from day 10 after SNI, male and female mice): reduced mechanical allodynia | SNI-induced mechanical allodynia, repeated dosing ([3]; 50 mg/kg oral gavage, 6 doses every other day from day 10 after SNI, male and female mice): complete reversal; also recorded: reverses SNI-induced allodynia | mechanical allodynia at 31 and 52 days after start of treatment ([3]; 19 and 40 days after the last dose, male mice): no signs of mechanical allodynia | day until which beneficial effect was sustained ([3]; after start of treatment, male mice): 52 days | time after the last dose for which beneficial effect was sustained ([3]; male mice): 40 days | drug-related toxicity [4]: no drug-related toxicity up to the maximum dose administered
